# In patent US11234914B2, “Monosubstituted urea derivatives as a self-tanning substance” (MERCK PATENT GMBH, priority 2016, dated 2022):
# Legend:
# [1] = system: Normal Human Epidermal Keratinocytes (NHEK) and Normal Human Epidermal Melanocytes, lightly pigmented (NHEM-LP) co-culture; assay: Synthesis of melanin in NHEK/NHEM-LP co-culture; assay type: cell-based; conditions: 240 hours (10 days) incubation, NHEK:NHEM-LP 2:1, OD 405 nm
# Procedure: Evaluation of the Synthesis of Melanin in a Cell Culture Model Containing Two Cell Types (Co-Culture), Firstly Normal Human Epidermal KeratinoCytes (NHEK) and Secondly Normal Human Epidermal Melanocytes, Lightly Pigmented (NHEM-LP)
# The two cell types NHEK and NHEM-LP (NHEK:NHEM-LP) are employed in a ratio of 2:1.
# The culture medium consists of the media keratinocyte-SFM (2 parts by volume) and medium M254 (1 part by volume).
# Keratinocyte-SFM contains 0.25 ng/ml of epidermal growth factor (EGF), 25 μg/ml of pituitary extract (PE) and 25 μg/ml of gentamycin and was purchased from Thermo Fisher Scientific.
# M254 contains PMA-free HMGS-2, 5 μg/ml of insulin, 50 U/ml of penicillin, 50 μg/ml of streptomycin and 25 μg/ml of gentamycin and was purchased from Thermo Fisher Scientific.
# NHEK and NHEM-LP were incubated in the culture medium in microtitre plates (24-well plates) for 24 hours (37° C., 5% CO2). The culture medium was removed and replaced by an assay medium which contained the culture medium and compounds Ia, Ib and Ic to be tested or alternatively no test substance, the reference L-tyrosine (1 mM), 200 μM of IBMX or the solvent control 0.1% of THF, 0.15% of THF. Compounds Ia, Ib and Ic are added as solution (0.15% in THF). After replacement of the assay medium, the cells were incubated again for 240 hours (10 days). On days 3 and 7, assay medium was again added. All experimental investigations were carried out using a triple determination. After the end of the incubation, the melanin was extracted by cell lysis with 0.5 N NaOH. The optical density (OD) of each sample was measured at 405 nm. The melanin quantity was calculated from melanin standards (standard curve 0.39 to 100 μg/ml of melanin).
# [2] = system: 3D melanized reconstructed human epidermis (RHEs-MEL); assay: Tanning properties in vitro on reconstructed epidermis; assay type: cell-based; conditions: compound at 25 μM and 12.5 M
# Procedure: Evaluation of the Tanning Properties In Vitro on Reconstructed Epidermis
# In this study, the tanning properties of compound Ic are investigated in vitro on 3D melanized reconstructed human epidermis (RHEs-MEL). The compound IBMX (3-isobutyl-1-methylxanthine) 100 μM is employed as positive control. Compound Ic is employed 25 μM and […]. Untreated reconstructed skin is used as negative control. The in vitro skin is treated systemically with the compounds to be investigated in a culture medium for 10 days and then analysed.
SMILES,stimulation of melanin synthesis ([1]; tested at 45 μM) [%],"ITA value (individual typology angle) ([2]; 10 days, both concentrations)","amount of melanin ([2]; 10 days, both concentrations)","tanning properties compared with positive control IBMX 100 μM ([2]; systemic treatment in culture medium for 10 days, evident for both concentrations)",stimulation of melanin synthesis ([1]; tested at 20 μM) [%],stimulation of melanin synthesis ([1]; tested at 30 μM) [%]
"NC(=O)NCc1ccccc1 [Compound Ia, Benzylurea]",17,–,–,–,–,–
"COc1ccc(CNC(N)=O)cc1 [Compound Ib, (4-methoxybenzyl)urea]",18,–,–,–,–,–
"NC(=O)NCc1ccc2c(c1)OCO2 [Compound Ic, benzo[1,3]dioxol-5ylmethylurea]",–,reduction,increased,comparably good properties as IBMX at 100 μM,23,44
